Results from PubChem BioAssay AID1963856 (Molecular Pharmacology Branch, DTP, NCI, 2024).

Tested on: LG0567-F671-PDC KRAS tumor spheroid viability
Test: Anticancer human tumor LG0567-F671-PDC patient-derived lung adenocarcinoma cell line growth inhibition [KRAS2]
Settings: spheroids with HUVEC and MSC; for IC50: curve of first compound; for viability, T/C: stronger effect = lower value
Summary of the method: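 KRAS-mutant tumor cells were grown as spheroids with HUVEC endothelial cells and human MSCs as stroma. Targeted agents were tested alone and with KRAS pathway inhibitors. Doses started at or near clinical Cmax, or 10 microM, descending half-log.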

[1] = second compound 0.1 µM, first compound 0.0316 µM
[2] = second compound 0.1 µM, first compound 0.1 µM
[3] = second compound 0.1 µM, first compound 0.316 µM
[4] = second compound 0.1 µM, first compound 1 µM
[5] = second compound 0.1 µM, first compound 3.16 µM
[6] = second compound 0.316 µM, first compound 0.0316 µM
[7] = second compound 0.316 µM, first compound 0.1 µM
[8] = second compound 0.316 µM, first compound 0.316 µM
[9] = second compound 0.316 µM, first compound 1 µM
[10] = second compound 0.316 µM, first compound 3.16 µM
[11] = second compound 1 µM, first compound 0.0316 µM
[12] = second compound 1 µM, first compound 0.1 µM
[13] = second compound 1 µM, first compound 0.316 µM
[14] = second compound 1 µM, first compound 1 µM
[15] = second compound 1 µM, first compound 3.16 µM
[16] = second compound 3.16 µM, first compound 0.0316 µM
[17] = second compound 3.16 µM, first compound 0.1 µM
[18] = second compound 3.16 µM, first compound 0.316 µM
[19] = second compound 3.16 µM, first compound 1 µM
[20] = second compound 3.16 µM, first compound 3.16 µM
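Also: drug exposure lasted seven days after spheroids formed for three days.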
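For viability, T/C in this document: 100% = DMSO vehicle control viability.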

| SMILES | IC50 (second compound 0.1 µM) [nM] | IC50 (second compound 0.316 µM) [nM] | IC50 (second compound 1 µM) [nM] | IC50 (second compound 3.16 µM) [nM] | viability, T/C [1] [%] | viability, T/C [2] [%] | viability, T/C [3] [%] | viability, T/C [4] [%] | viability, T/C [5] [%] | viability, T/C [6] [%] | viability, T/C [7] [%] | viability, T/C [8] [%] | viability, T/C [9] [%] | viability, T/C [10] [%] | viability, T/C [11] [%] | viability, T/C [12] [%] | viability, T/C [13] [%] | viability, T/C [14] [%] | viability, T/C [15] [%] | viability, T/C [16] [%] | other results |
| --- | --- | --- | --- | --- | --- | --- | --- | --- | --- | --- | --- | --- | --- | --- | --- | --- | --- | --- | --- | --- | --- |
| CC1COCCN1c1cc(-c2ccnn2C)c2ccnc(-c3ccn[nH]3)c2n1 (stereo not given) + C=CC(=O)N1CCN(c2nc(OCC3CCCN3C)nc3c2CCN(c2cccc4cccc(C)c24)C3)CC1CC#N | < 10 | < 10 | < 10 | < 10 | 21.2 | 17.4 | 12.7 | 10.8 | 10.4 | 19.4 | 15.6 | 11.3 | 12.1 | 10.7 | 21.4 | 16.7 | 13.9 | 13.9 | 13.7 | 22.6 | IC50 (second compound 0.0316 µM): < 10 nM; viability, T/C (second compound 0.0316 µM, first compound 0.01 µM): 33.7%; viability, T/C (second compound 0.0316 µM, first compound 0.0316 µM): 23.5%; viability, T/C (second compound 0.0316 µM, first compound 0.1 µM): 17.1%; viability, T/C (second compound 0.0316 µM, first compound 0.316 µM): 15.6%; viability, T/C (second compound 0.0316 µM, first compound 1 µM): 14.1%; viability, T/C (second compound 0.0316 µM, first compound 3.16 µM): 12.7%; viability, T/C (second compound 0.1 µM, first compound 0.01 µM): 26.9%; viability, T/C (second compound 0.316 µM, first compound 0.01 µM): 24.7%; viability, T/C (second compound 1 µM, first compound 0.01 µM): 26.8%; viability, T/C (second compound 3.16 µM, first compound 0.01 µM): 26.2%; viability, T/C [17]: 20.8%; viability, T/C [18]: 17.3%; viability, T/C [19]: 13.3%; viability, T/C [20]: 12.2% |
| COc1cc(Nc2ncc3c(n2)-c2ccc(Cl)cc2C(c2c(F)cccc2OC)=NC3)ccc1C(=O)O + CC1OCC2(CCN(c3cnc(Sc4ccnc(N)c4Cl)c(N)n3)CC2)C1N | 204 | < 31.6 | < 31.6 | < 31.6 | 58.7 | 49.6 | 45.7 | 47.1 | 40.3 | 25.7 | 26 | 21.7 | 22.8 | 23.8 | 17.6 | 19.2 | 18.1 | 18.5 | 17.2 | 12.1 | IC50 (second compound 10 µM): < 31.6 nM; viability, T/C (second compound 0.1 µM, first compound 10 µM): 31.7%; viability, T/C (second compound 0.316 µM, first compound 10 µM): 18.8%; viability, T/C (second compound 1 µM, first compound 10 µM): 14.9%; viability, T/C [17]: 8.31%; viability, T/C [18]: 8.93%; viability, T/C [19]: 8.9%; viability, T/C [20]: 4.29%; viability, T/C (second compound 3.16 µM, first compound 10 µM): 5.34%; viability, T/C (second compound 10 µM, first compound 0.0316 µM): 4.83%; viability, T/C (second compound 10 µM, first compound 0.1 µM): 3.93%; viability, T/C (second compound 10 µM, first compound 0.316 µM): 3.68%; viability, T/C (second compound 10 µM, first compound 1 µM): 3.68%; viability, T/C (second compound 10 µM, first compound 3.16 µM): 3.65%; viability, T/C (second compound 10 µM, first compound 10 µM): 4.21% |
